# In PubChem BioAssay (NCI):
#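 1) Cells in 96-well plates. 2) Compound, 48 h, 5 concentrations. 3) Linear interpolation between surrounding doses. 4) Unreached endpoint = highest concentration. At the GI50, growth is halved. At the TGI there is no net growth.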
# How the values were obtained:
# Experiment in all cases: DTP human tumour cell line panel, 48 h
# [1] = test system: 786-0 renal
# [2] = test system: A498 renal
# [3] = test system: A549 NSCLC
# [4] = test system: ACHN renal
# [5] = test system: BT-549 breast
# [6] = test system: CAKI-1 renal
# [7] = test system: CCRF-CEM leukemia
# [8] = test system: COLO 205 colon
# [9] = test system: DU-145 prostate
# [10] = test system: EKVX NSCLC
# [11] = test system: HCC-2998 colon
# [12] = test system: HCT-116 colon
# [13] = test system: HCT-15 colon
# [14] = test system: HL-60(TB) leukemia
# [15] = test system: HOP-62 NSCLC
# [16] = test system: HOP-92 NSCLC
# [17] = test system: HS 578T breast
# [18] = test system: HT29 colon
# [19] = test system: IGROV1 ovarian
# [20] = test system: K-562 leukemia
# [21] = test system: KM12 colon
# [22] = test system: LOX IMVI melanoma
# [23] = test system: M14 melanoma
# [24] = test system: MALME-3M melanoma
# [25] = test system: MCF7 breast
# [26] = test system: MDA-MB-231 breast
# [27] = test system: MDA-MB-435
# [28] = test system: MDA-MB-468 breast
# [29] = test system: MOLT-4 leukemia
# [30] = test system: NCI-H226 lung
# [31] = test system: NCI-H23 lung
# [32] = test system: NCI-H460 lung
# [33] = test system: NCI-H522 lung
# [34] = test system: NCI/ADR-RES ovarian
# [35] = test system: OVCAR-3 ovarian
# [36] = test system: OVCAR-4 ovarian
# [37] = test system: OVCAR-5 ovarian
# [38] = test system: OVCAR-8 ovarian
# [39] = test system: PC-3 prostate
# [40] = test system: RPMI-8226 leukemia
# [41] = test system: RXF 393 renal
# [42] = test system: SF-268 CNS
# [43] = test system: SF-295 CNS
# [44] = test system: SF-539 CNS
# [45] = test system: SK-MEL-2 melanoma
# [46] = test system: SK-MEL-28 melanoma
# [47] = test system: SK-MEL-5 melanoma
# [48] = test system: SK-OV-3 ovarian
# [49] = test system: SN12C renal
# [50] = test system: SNB-19 CNS
# [51] = test system: SNB-75 CNS
# [52] = test system: SR leukemia
# [53] = test system: SW-620 colon
# [54] = test system: T-47D breast
# [55] = test system: TK-10 renal
# [56] = test system: U251 CNS
# [57] = test system: UACC-257 melanoma
# [58] = test system: UACC-62 melanoma
# [59] = test system: UO-31 renal
structure (smiles),measurement,setting,value
O=C(CSc1nnc(-c2ccc(-c3nc4ccc(Cl)cc4[nH]3)cc2)o1)Nc1ccc(Br)cc1,GI50,[1],2.23 µM
same,TGI,[1],5.5 µM
same,GI50,[2],17.3 µM
same,TGI,[2],34.3 µM
same,GI50,[3],1.79 µM
same,TGI,[3],3.95 µM
same,GI50,[4],2.4 µM
same,TGI,[4],6.78 µM
same,GI50,[5],2.95 µM
same,TGI,[5],8.55 µM
same,GI50,[6],2.34 µM
same,TGI,[6],7.01 µM
same,GI50,[7],2.31 µM
same,TGI,[7],10.4 µM
same,GI50,[8],24.5 µM
same,TGI,[8],> 100 µM
same,GI50,[9],4.56 µM
same,TGI,[9],19.3 µM
same,GI50,[10],3.33 µM
same,TGI,[10],14.6 µM
same,GI50,[11],15.3 µM
same,TGI,[11],46.5 µM
same,GI50,[12],3.22 µM
same,TGI,[12],14.4 µM
same,GI50,[13],2.94 µM
same,TGI,[13],13.6 µM
same,GI50,[14],2.87 µM
same,TGI,[14],11.5 µM
same,GI50,[15],1.81 µM
same,TGI,[15],3.96 µM
same,GI50,[16],2.43 µM
same,TGI,[16],9.03 µM
same,GI50,[17],2.62 µM
same,TGI,[17],9.96 µM
same,GI50,[18],3.42 µM
same,TGI,[18],13.3 µM
same,GI50,[19],8.27 µM
same,TGI,[19],21.5 µM
same,GI50,[20],2.49 µM
same,TGI,[20],11.8 µM
same,GI50,[21],6 µM
same,TGI,[21],31.8 µM
same,GI50,[22],1.42 µM
same,TGI,[22],2.8 µM
same,GI50,[23],3.06 µM
same,TGI,[23],11.1 µM
same,GI50,[24],1.94 µM
same,TGI,[24],4.84 µM
same,GI50,[25],3.02 µM
same,TGI,[25],12.9 µM
same,GI50,[26],1.76 µM
same,TGI,[26],3.59 µM
same,GI50,[27],3.84 µM
same,TGI,[27],14.3 µM
same,GI50,[28],2.66 µM
same,TGI,[28],9.97 µM
same,GI50,[29],2.99 µM
same,TGI,[29],14.2 µM
same,GI50,[30],1.62 µM
same,TGI,[30],4.58 µM
same,GI50,[31],2 µM
same,TGI,[31],4.49 µM
same,GI50,[32],2.34 µM
same,TGI,[32],6.32 µM
same,GI50,[33],1.84 µM
same,TGI,[33],5.01 µM
same,GI50,[34],4.93 µM
same,TGI,[34],30.3 µM
same,GI50,[35],3.72 µM
same,TGI,[35],11.7 µM
same,GI50,[36],4.81 µM
same,TGI,[36],19.3 µM
same,GI50,[37],3.71 µM
same,TGI,[37],17.5 µM
same,GI50,[38],2.17 µM
same,TGI,[38],5.63 µM
same,GI50,[39],2.1 µM
same,TGI,[39],5.78 µM
same,GI50,[40],5.05 µM
same,TGI,[40],26.3 µM
same,GI50,[41],1.98 µM
same,TGI,[41],5.15 µM
same,GI50,[42],3.45 µM
same,TGI,[42],16.8 µM
same,GI50,[43],1.93 µM
same,TGI,[43],4.99 µM
same,GI50,[44],1.65 µM
same,TGI,[44],3.08 µM
same,GI50,[45],2.98 µM
same,TGI,[45],11.1 µM
same,GI50,[46],1.77 µM
same,TGI,[46],3.81 µM
same,GI50,[47],2.98 µM
same,TGI,[47],11.1 µM
same,GI50,[48],8.75 µM
same,TGI,[48],27.5 µM
same,GI50,[49],1.74 µM
same,TGI,[49],4.09 µM
same,GI50,[50],3.76 µM
same,TGI,[50],14.3 µM
same,GI50,[51],2.39 µM
same,TGI,[51],8.71 µM
same,GI50,[52],1.67 µM
same,TGI,[52],> 100 µM
same,GI50,[53],4.3 µM
same,TGI,[53],28.5 µM
same,GI50,[54],3.78 µM
same,TGI,[54],20.2 µM
same,GI50,[55],16.5 µM
same,TGI,[55],33.4 µM
same,GI50,[56],1.88 µM
same,TGI,[56],3.82 µM
same,GI50,[57],2.97 µM
same,TGI,[57],12.8 µM
same,GI50,[58],1.84 µM
same,TGI,[58],4.61 µM
same,GI50,[59],4.03 µM
same,TGI,[59],16.5 µM
O=C(N=Nc1c(O)[nH]c2ccc(Br)cc12)c1ccc2nc(-c3ccccc3)[nH]c2c1,GI50,[1],2.01 µM
same,TGI,[1],3.91 µM
same,GI50,[2],3.55 µM
same,TGI,[2],17.9 µM
same,GI50,[3],2.22 µM
same,TGI,[3],7.41 µM
same,GI50,[4],8.96 µM
same,TGI,[4],> 100 µM
same,GI50,[5],3.55 µM
same,TGI,[5],26.5 µM
same,GI50,[6],> 100 µM
same,TGI,[6],> 100 µM
same,GI50,[7],3.18 µM
same,TGI,[7],> 100 µM
same,GI50,[8],2.53 µM
same,TGI,[8],6.95 µM
same,GI50,[9],1.95 µM
same,TGI,[9],4.06 µM
same,GI50,[10],3 µM
same,TGI,[10],11.2 µM
same,GI50,[11],1.48 µM
same,TGI,[11],3.11 µM
same,GI50,[12],3.24 µM
same,TGI,[12],12.8 µM
same,GI50,[13],18.6 µM
same,TGI,[13],> 100 µM
same,GI50,[14],2.54 µM
same,TGI,[14],6.73 µM
same,GI50,[15],1.69 µM
same,TGI,[15],3.36 µM
same,GI50,[16],2.17 µM
same,TGI,[16],6.63 µM
same,GI50,[17],1.86 µM
same,TGI,[17],4.83 µM
same,GI50,[18],2.66 µM
same,TGI,[18],8.75 µM
same,GI50,[19],3.03 µM
same,TGI,[19],13.2 µM
same,GI50,[20],1.29 µM
same,TGI,[20],6.99 µM
same,GI50,[21],22 µM
same,TGI,[21],> 100 µM
same,GI50,[22],1.23 µM
same,TGI,[22],2.51 µM
same,GI50,[23],1.95 µM
same,TGI,[23],4.14 µM
same,GI50,[24],1.62 µM
same,TGI,[24],3.35 µM
same,GI50,[25],1.7 µM
same,TGI,[25],5.09 µM
same,GI50,[26],1.69 µM
same,TGI,[26],3.18 µM
same,GI50,[27],2.32 µM
same,TGI,[27],4.93 µM
same,GI50,[28],1.61 µM
same,TGI,[28],3.06 µM
same,GI50,[29],1.34 µM
same,TGI,[29],4.01 µM
same,GI50,[30],2.03 µM
same,TGI,[30],5.43 µM
same,GI50,[31],1.53 µM
same,TGI,[31],3.65 µM
same,GI50,[32],1.79 µM
same,TGI,[32],3.53 µM
same,GI50,[33],1.38 µM
same,TGI,[33],3.1 µM
same,GI50,[34],> 100 µM
same,TGI,[34],> 100 µM
same,GI50,[35],2.14 µM
same,TGI,[35],4.26 µM
same,GI50,[36],1.99 µM
same,TGI,[36],4.26 µM
same,GI50,[37],3.72 µM
same,TGI,[37],27.1 µM
same,GI50,[38],1.53 µM
same,TGI,[38],3.76 µM
same,GI50,[39],2.92 µM
same,TGI,[39],> 100 µM
same,GI50,[40],17.2 µM
same,TGI,[40],> 100 µM
same,GI50,[41],2.57 µM
same,TGI,[41],6.6 µM
same,GI50,[42],2 µM
same,TGI,[42],4.6 µM
same,GI50,[43],1.86 µM
same,TGI,[43],3.78 µM
same,GI50,[44],1.77 µM
same,TGI,[44],3.43 µM
same,GI50,[45],2.17 µM
same,TGI,[45],4.78 µM
same,GI50,[46],1.79 µM
same,TGI,[46],3.42 µM
same,GI50,[47],3.38 µM
same,TGI,[47],12.1 µM
same,GI50,[48],1.97 µM
same,TGI,[48],4.29 µM
same,GI50,[49],1.86 µM
same,TGI,[49],4.11 µM
same,GI50,[50],1.79 µM
same,TGI,[50],4.35 µM
same,GI50,[51],2.11 µM
same,TGI,[51],5.62 µM
same,GI50,[53],1.82 µM
same,TGI,[53],3.61 µM
same,GI50,[54],1.07 µM
same,TGI,[54],2.52 µM
same,GI50,[55],3.61 µM
same,TGI,[55],70.1 µM
same,GI50,[56],0.418 µM
same,TGI,[56],1.59 µM
same,GI50,[57],3.27 µM
same,TGI,[57],21.7 µM
same,GI50,[58],1.75 µM
same,TGI,[58],3.37 µM
same,GI50,[59],> 100 µM
same,TGI,[59],> 100 µM
